Laboratory results published in ChEMBL document CHEMBL1133223, “Mechanistic studies on prolyl-4-hydroxylase: the vitamin C requiring uncoupled oxidation” (Bioorg Med Chem Lett, 2000).
Square brackets hold non-standard residues; d marks the D form. Peptide text beside a SMILES is read from it. * marks the point of attachment. ΔPro = O=C(O)[C@@H]1C=CCN1; Cbz = O=C(OCc1ccccc1)*

Tests used:
Assay type in all cases: ADME
[1] = Km by incubating with prolyl-4-hydroxylase under standard assay conditions
[2] = Percent Vmax by incubating with prolyl-4-hydroxylase under standard assay conditions
[3] = V/K by incubating with prolyl-4-hydroxylase under standard assay conditions

Row | Structure (SMILES) | Km [1] [µM] | Vmax [2] [%] | V/K [3]
1 | CCOC(=O)CNC(=O)[C@@H]1C=CCN1C(=O)[C@H](Cc1ccccc1)NC(=O)CNC(=O)OCc1ccccc1 (Cbz-GF[ΔPro]G-OEt) | 200 | 95 | 
2 | O=C(O)CNC(=O)[C@@H]1CCCN1C(=O)[C@@H]1CCCN1 (H-Pro-Pro-Gly-OH) | 200 | 100 | 
3 | CCOC(=O)CNC(=O)[C@@H]1CCCN1C(=O)[C@H](Cc1ccccc1)NC(=O)CNC(=O)OCc1ccccc1 (Cbz-GFPG-OEt) | 520 | 30 | 3.4
